From patent US20160122340A1, “HISTONE DEACETYLASE INHIBITORS BASED ON DERIVATIVES OF TRICYCLIC POLYHYDROACRIDINE AND ANALOGS POSSESSING FUSED SATURATED FIVE-AND-SEVEN-MEMBERED RINGS” (QUIMATRYX, S.L., priority 2013, published 2016)

Columns and labels:
Assay type in all cases: biochemical
Human HDAC1 = biological target: T1, Human HDAC1 (Homo sapiens, UniProt Q13547); assay: In vitro HDAC1 inhibition, fluorogenic peptide substrate; settings: read-out: IC50 (μM) HDAC-1
T1 construct: Full length with C-terminal GST tag, MW=79.9 kDa; GST (C); purchased BioMol SE-456; host or cells: baculovirus / Sf9 cells
Description: (§1) In Vitro Inhibitory Activity of Histone Deacetylase: Human Isoforms HDAC1, 2, 3, 4, 5, 6, 7, 8, 9, 10 and 11 and HeLa Cell Line Nuclear Extract (IC50 Data)
(§2) All HDAC assays were performed using acetylated AMC-labeled peptide substrate: • Substrate for isoforms HDAC1, 2, 3, 6, 10, 11 and HeLa nuclear extract assays: Acetylated fluorogenic peptide from p53 residues 379-382 (RHKKAc). • Substrate for isoforms HDAC 4, 5, 7, 9: Fluorogenic Boc-L-Lys(ε-trifluoroacetyl)-AMC. • Substrate for HDAC8 assays: Acetylated fluorogenic peptide from p53 residues 379-382 (RHKAcKAc).
(§3) 50 μM of substrate peptide (see ‘substrate peptides’ section above) and an optimal concentration of the corresponding enzyme (see ‘enzymes’ section above) in the assay buffer and 1% final concentration of DMSO were incubated in the presence of gradient concentrations of inhibitors (10-dose IC50 mode with 3-fold serial dilution) at 30° C. for 2 h. The reactions were carried out in a 96-well microplate for fluorometry in a 50 μl reaction volume. After the deacetylation reaction, Fluor-de-Lys-Developer (BioMol Cat. # KI-105) was added to each well to digest the deacetylated substrate, thus producing the fluorescent signal. The reaction was allowed to develop for 45 minutes at 30° C. with 5% CO2; then the fluorescent signal was measured with an excitation wavelength at 360 nm and an emission wavelength at 460 nm in a microplate-reading fluorometer (GeminiXS; Molecular Devices, Sunnyvale, Calif.). A curve of Deacetylated Standard (Biomol, Cat. # KI-142; made from 100 μM with 1:2 dilution and 10-doses, 6 μl) allowed the conversion of fluorescent signal into micromoles of deacetylated product. All experiments were performed in triplicate. IC50 was calculated by fitting the experimental data to a dose-response curve. DMSO was used as negative control; Trichostatin A (Biomol Cat. # GR-309) was used as positive control inhibitor.

Human HDAC9 = biological target: T2, Human HDAC9 (Homo sapiens, UniProt Q9UKV0); assay: In vitro HDAC9 inhibition, fluorogenic substrate; settings: read-out: IC50 (μM) HDAC-9
T2 construct: Amino acids 604-1066 with C-terminal His tag, MW=50.7 kDa; His (C); purchased BioMol, Hamburg, Germany; host or cells: baculovirus expression system
Description: as §1, §2, §3

Human HDAC4 = biological target: T3, Human HDAC4 (Homo sapiens, UniProt P56524); assay: In vitro HDAC4 inhibition, fluorogenic substrate; settings: read-out: IC50 (μM) HDAC-4
T3 construct: Amino acids 627-1085 with N-terminal GST tag, MW=75.2 kDa; GST (N); purchased BioMol, Hamburg, Germany; host or cells: baculovirus expression system
Description: as §1, §2, §3

Human HDAC2 = biological target: T4, Human HDAC2 (Homo sapiens, UniProt Q92769); assay: In vitro HDAC2 inhibition, fluorogenic peptide substrate; settings: read-out: IC50 (μM) HDAC-2
T4 construct: Full length with C-terminal His tag, MW=60 kDa; His (C); purchased BioMol SE-500; host or cells: baculovirus / Sf9 cells
Description: as §1, §2, §3

Human HDAC8 = biological target: T5, Human HDAC8 (Homo sapiens, UniProt Q9BY41); assay: In vitro HDAC8 inhibition, fluorogenic peptide substrate; settings: read-out: IC50 (μM) HDAC-8
T5 construct: Full length, MW=42 kDa, expressed in an E. coli expression system; purchased BioMol SE-145; host or cells: E. coli
T5 sequence (Q9BY41 1-377): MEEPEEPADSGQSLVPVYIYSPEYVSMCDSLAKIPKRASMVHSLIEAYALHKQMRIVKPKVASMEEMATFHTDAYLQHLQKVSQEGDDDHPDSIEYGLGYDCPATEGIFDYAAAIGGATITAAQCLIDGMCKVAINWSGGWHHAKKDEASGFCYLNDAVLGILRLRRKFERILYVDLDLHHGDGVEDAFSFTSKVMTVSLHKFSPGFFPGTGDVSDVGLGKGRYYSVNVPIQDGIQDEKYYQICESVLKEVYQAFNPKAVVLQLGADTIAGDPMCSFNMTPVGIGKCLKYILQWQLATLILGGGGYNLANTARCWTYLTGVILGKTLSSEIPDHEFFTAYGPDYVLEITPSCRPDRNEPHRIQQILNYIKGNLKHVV
Description: as §1, §2, §3

Human HDAC3/NcoR2 = biological target: T6, Human HDAC3/NcoR2 (Homo sapiens, UniProt O15379); assay: In vitro HDAC3 inhibition, fluorogenic peptide substrate; settings: read-out: IC50 (μM) HDAC-3
T6 construct: Complex of human HDAC3, full length with C-terminal His tag, MW=49.7 kDa; His (C); purchased BioMol SE-507; host or cells: baculovirus expression system
Description: as §1, §2, §3

Human HDAC11 = biological target: T7, Human HDAC11 (Homo sapiens, UniProt Q96DB2); assay: In vitro HDAC11 inhibition, fluorogenic peptide substrate; settings: read-out: IC50 (μM) HDAC-11
T7 construct: GST (N); purchased BioMol SE-560; host or cells: baculovirus expression system
T7 sequence (Q96DB2 1-347): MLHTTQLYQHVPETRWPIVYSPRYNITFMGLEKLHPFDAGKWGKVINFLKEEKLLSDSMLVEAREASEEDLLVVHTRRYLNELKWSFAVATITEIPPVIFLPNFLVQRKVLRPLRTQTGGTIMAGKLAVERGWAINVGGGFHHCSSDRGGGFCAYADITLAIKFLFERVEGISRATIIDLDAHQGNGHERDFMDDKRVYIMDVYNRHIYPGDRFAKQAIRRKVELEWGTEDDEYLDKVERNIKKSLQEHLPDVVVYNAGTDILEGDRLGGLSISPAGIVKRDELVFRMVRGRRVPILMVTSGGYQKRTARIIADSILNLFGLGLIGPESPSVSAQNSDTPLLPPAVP
Description: as §1, §2, §3

T1 sequence (Q13547 whole entry): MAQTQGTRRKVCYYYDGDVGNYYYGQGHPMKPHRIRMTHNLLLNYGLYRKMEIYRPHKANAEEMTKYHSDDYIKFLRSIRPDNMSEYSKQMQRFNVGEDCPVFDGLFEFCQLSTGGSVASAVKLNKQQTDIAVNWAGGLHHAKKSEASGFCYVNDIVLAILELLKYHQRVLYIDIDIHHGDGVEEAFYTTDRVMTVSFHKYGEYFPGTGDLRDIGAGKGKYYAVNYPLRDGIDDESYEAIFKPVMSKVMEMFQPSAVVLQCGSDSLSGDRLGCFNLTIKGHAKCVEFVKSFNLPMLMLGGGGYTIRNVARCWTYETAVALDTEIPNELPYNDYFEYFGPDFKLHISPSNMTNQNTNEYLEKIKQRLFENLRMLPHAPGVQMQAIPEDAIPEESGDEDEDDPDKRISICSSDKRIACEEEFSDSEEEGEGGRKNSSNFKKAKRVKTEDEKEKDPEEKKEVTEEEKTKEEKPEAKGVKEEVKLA
T3 sequence (P56524 627-1084 limits assumed): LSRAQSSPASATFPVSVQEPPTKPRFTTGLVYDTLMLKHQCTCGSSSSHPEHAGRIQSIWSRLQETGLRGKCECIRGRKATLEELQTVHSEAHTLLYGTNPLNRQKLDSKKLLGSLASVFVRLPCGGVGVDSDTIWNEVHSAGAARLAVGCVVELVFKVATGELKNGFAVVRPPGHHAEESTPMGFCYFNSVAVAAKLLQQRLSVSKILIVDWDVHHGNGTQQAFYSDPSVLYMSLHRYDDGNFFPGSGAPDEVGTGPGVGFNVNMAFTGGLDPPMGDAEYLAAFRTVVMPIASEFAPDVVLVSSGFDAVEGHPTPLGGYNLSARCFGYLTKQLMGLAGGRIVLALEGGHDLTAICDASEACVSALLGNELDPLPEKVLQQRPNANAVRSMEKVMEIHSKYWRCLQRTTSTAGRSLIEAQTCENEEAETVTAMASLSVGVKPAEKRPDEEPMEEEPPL
T2 sequence (Q9UKV0 604-1066 isoform Q9UKV0-5): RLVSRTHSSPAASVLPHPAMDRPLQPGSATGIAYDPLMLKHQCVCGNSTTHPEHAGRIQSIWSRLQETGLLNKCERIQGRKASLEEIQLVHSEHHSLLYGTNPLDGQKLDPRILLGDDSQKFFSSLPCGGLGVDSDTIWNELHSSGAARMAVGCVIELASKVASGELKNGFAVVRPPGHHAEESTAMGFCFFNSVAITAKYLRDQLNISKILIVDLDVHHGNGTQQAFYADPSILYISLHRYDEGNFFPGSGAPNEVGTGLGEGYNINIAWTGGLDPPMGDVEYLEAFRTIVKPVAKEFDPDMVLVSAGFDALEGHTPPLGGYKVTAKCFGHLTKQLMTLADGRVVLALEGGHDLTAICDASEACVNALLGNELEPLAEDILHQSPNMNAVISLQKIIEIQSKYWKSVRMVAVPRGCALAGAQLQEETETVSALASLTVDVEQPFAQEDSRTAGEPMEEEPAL
T6 sequence (O15379 whole entry): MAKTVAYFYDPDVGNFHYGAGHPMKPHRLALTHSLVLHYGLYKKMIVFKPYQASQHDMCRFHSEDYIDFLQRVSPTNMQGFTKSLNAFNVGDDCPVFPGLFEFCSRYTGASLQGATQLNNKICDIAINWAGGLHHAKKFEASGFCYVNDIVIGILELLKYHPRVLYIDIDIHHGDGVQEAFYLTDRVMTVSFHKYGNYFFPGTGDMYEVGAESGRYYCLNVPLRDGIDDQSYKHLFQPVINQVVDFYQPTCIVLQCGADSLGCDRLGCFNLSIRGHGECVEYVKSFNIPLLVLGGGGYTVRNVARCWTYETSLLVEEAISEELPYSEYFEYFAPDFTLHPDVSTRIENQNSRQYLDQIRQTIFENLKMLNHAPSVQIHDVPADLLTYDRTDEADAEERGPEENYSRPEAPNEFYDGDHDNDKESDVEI
T6 sequence (Q9Y618 395-489 partner limits assumed): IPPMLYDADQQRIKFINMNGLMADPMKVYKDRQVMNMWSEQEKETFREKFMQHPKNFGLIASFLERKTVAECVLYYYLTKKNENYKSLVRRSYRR
T4 sequence (Q92769 whole entry): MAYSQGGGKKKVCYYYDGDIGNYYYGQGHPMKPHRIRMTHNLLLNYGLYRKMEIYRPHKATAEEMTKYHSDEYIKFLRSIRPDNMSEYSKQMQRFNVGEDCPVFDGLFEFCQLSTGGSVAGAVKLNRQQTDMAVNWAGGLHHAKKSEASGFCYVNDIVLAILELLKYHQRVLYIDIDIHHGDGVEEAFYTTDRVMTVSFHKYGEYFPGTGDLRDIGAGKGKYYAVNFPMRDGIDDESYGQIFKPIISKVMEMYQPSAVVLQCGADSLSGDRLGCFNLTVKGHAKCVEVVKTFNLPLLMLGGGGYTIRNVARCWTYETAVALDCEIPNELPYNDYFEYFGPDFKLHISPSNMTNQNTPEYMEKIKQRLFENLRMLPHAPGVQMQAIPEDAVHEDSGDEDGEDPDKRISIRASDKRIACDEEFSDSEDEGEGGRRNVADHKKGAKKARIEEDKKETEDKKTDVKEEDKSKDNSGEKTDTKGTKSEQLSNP

Structure (SMILES)	IC50 (Human HDAC1) [µM]	IC50 (Human HDAC9) [µM]	IC50 (Human HDAC4) [µM]	IC50 (Human HDAC2) [µM]	IC50 (Human HDAC8) [µM]	IC50 (Human HDAC3/NcoR2) [µM]	IC50 (Human HDAC11) [µM]
O=C(CCCCCNc1c2c(nc3ccccc13)CCCC2)NO [Example 1, N-hydroxy-6-[(1,2,3,4-tetrahydroacridin-9-yl)amino]hexanamide]	2.99	2.47	6.19	6.09	0.59	2.84	2.21
O=C(CCCCCCNc1c2c(nc3ccccc13)CCCC2)NO [Example 2, N-hydroxy-7-[(1,2,3,4-tetrahydroacridin-9-yl)amino]heptanamide]	0.36	1.57	> 5	0.75	0.53	0.42	0.59
O=C(CCCCCCNc1c2c(nc3ccccc13)CCC2)NO [Example 3, 7-[(2,3-dihydro-1H-cyclopenta[b]quinolin-9-yl)amino]-N-hydroxyheptanamide]	0.27	> 5	> 5	0.77	1.28	0.36	0.44
O=C(CCCCCCNc1c2c(nc3ccccc13)CCCCC2)NO [Example 4, N-hydroxy-7-[(7,8,9,10-tetrahydro-6H-cyclohepta[b]quinolin-11-yl)amino]heptanamide]	0.84	> 5	> 5	1.92	0.84	0.74	1.22
COc1cccc2c(NCCCCCCC(=O)NO)c3c(nc12)CCCC3 [Example 5, N-hydroxy-7-[(5-methoxy-1,2,3,4-tetrahydroacridin-9-yl)amino]heptanamide]	0.9	> 5	> 5	1.84	1.52	0.66	1.04
O=C(CCCCCCNc1c2c(nc3ncccc13)CCCC2)NO [Example 7, N-hydroxy-7-[(6,7,8,9-tetrahydrobenzo[b][1,8]naphthyridin-5-yl)amino]heptanamide]	1.77	> 5	> 5	4.46	1.44	2.44	0.69
O=C(CCCCCCNc1c2c(nc3cnccc13)CCCC2)NO [Example 8, N-hydroxy-7-[(6,7,8,9-tetrahydrobenzo[b][1,7]naphthyridin-5-yl)amino]heptanamide]	1.12	> 5	> 5	2.41	1.09	1.88	0.6
O=C(CCCCCNC(=O)c1c2c(nc3ccccc13)CCCC2)NO [Example 10, N-[6-(hydroxyamino)-6-oxohexyl]-1,2,3,4-tetrahydroacridine-9-carboxamide]	> 5		> 5	> 5		> 5	> 5
O=C(CCCCCCNC(=O)c1c2c(nc3ccccc13)CCCC2)NO [Example 11, N-[7-(hydroxyamino)-7-oxoheptyl]-1,2,3,4-tetrahydroacridine-9-carboxamide]	2.95	3.17	> 5	8.48	0.21	3.62	4.1
